Measurements as given in ChEMBL document CHEMBL4007488, “Amphiphilic Indole Derivatives as Antimycobacterial Agents: Structure-Activity Relationships and Membrane Targeting Properties” (J Med Chem, 2017).
Converted amounts (≈) assume the structure as drawn.

Assays:
[1] = system: Mycobacterium tuberculosis variant bovis; assay: Antimycobacterial activity against Mycobacterium bovis BCG ATCC 35734 assessed as growth inhibition at 10 uM after 5 days relative to control; assay type: functional; settings: ATCC 35734, 120 h, read-out: GI
[2] = system: Mycobacterium tuberculosis variant bovis; assay: Antimycobacterial activity against Mycobacterium bovis BCG ATCC 35734 after 5 days by broth dilution method; assay type: functional; settings: ATCC 35734, 120 h

Row | Structure (SMILES) | inhibition of growth at 10 µM [1] [%] | MIC50 [2] [µM] | MIC90 [2] [µM]
1 | CCCCCCCCn1cc(C(=O)N2CCCCCC2)c2cc(F)ccc21 | 99 | > 50 | > 50
2 | CCCCCCCCn1cc(CN2CCC(C)CC2)c2cccc(F)c21 | 99 | 4 (≈ 1.43 µg/mL) | 6 (≈ 2.15 µg/mL)
3 | CC(C)=CCC/C(C)=C/Cn1cc(CN2CCCC2)c2cc(F)ccc21 | 99 | 13 (≈ 4.61 µg/mL) | 25 (≈ 8.86 µg/mL)
4 | CCCCCCCCn1cc(CN(CC)CC)c2cc(F)ccc21 | 99 | 10 (≈ 3.33 µg/mL) | 36 (≈ 12 µg/mL)
5 | CCCCCCCCn1cc(CNCCC)c2cc(F)ccc21 | 99 | 10 (≈ 3.18 µg/mL) | 20 (≈ 6.37 µg/mL)
6 | CC(C)=CCC/C(C)=C/Cn1cc(CN2CCOCC2)c2cc(F)ccc21 | 99 | 15.5 (≈ 5.74 µg/mL) | > 50
7 | CCCN(CC)Cc1cn(C/C=C(\C)CCC=C(C)C)c2ccc(F)cc12 | 99 | 13 (≈ 4.82 µg/mL) | 25 (≈ 9.26 µg/mL)
8 | O=C(Cn1cc(CN2CCCCC2)c2cc(F)ccc21)NC1CC1 | 99 | > 50 | > 50
9 | CCCCCCCCn1cc(CN2CCC(C)CC2)c2ccc(OC)cc21 | 99 | 3 (≈ 1.11 µg/mL) | 5 (≈ 1.85 µg/mL)
10 | CCCCCCCCn1cc(CN2CCCCC2)c2c(F)cccc21 | 99 | 6 (≈ 2.07 µg/mL) | 11 (≈ 3.79 µg/mL)
11 | CCCCCCCCn1cc(CNC23CC4CC(CC(C4)C2)C3)c2c(OC)cccc21 | 99 | 6 (≈ 2.54 µg/mL) | 12 (≈ 5.07 µg/mL)
12 | CCCCCCCCn1cc(CN2CCC3(CC2)OCCO3)c2c(F)cccc21 | 99 | 3 (≈ 1.21 µg/mL) | 6 (≈ 2.42 µg/mL)
13 | CCCCCCCCn1cc(CN(C)CCC)c2cc(F)ccc21 | 99 | 12 (≈ 3.99 µg/mL) | 35 (≈ 11.6 µg/mL)
14 | CCCCCCCCn1cc(CN2CCC3(CC2)OCCO3)c2cc(F)ccc21 | 99 | 3 (≈ 1.21 µg/mL) | 5 (≈ 2.01 µg/mL)
15 | CC(C)=CCC/C(C)=C/Cn1cc(CN2CCC(C)CC2)c2cc(F)ccc21 | 99 | 4 (≈ 1.53 µg/mL) | 6 (≈ 2.3 µg/mL)
16 | CCCCCCCCn1cc(CNC(C)C)c2cc(F)ccc21 | 99 | 12 (≈ 3.82 µg/mL) | 26 (≈ 8.28 µg/mL)
17 | CCCCCCCCn1cc(CN2CCC(C)CC2)c2cc(F)ccc21 | 99 | 4 (≈ 1.43 µg/mL) | 6 (≈ 2.15 µg/mL)
18 | CC(C)=CCC/C(C)=C/Cn1cc(CN2CCCCC2)c2cc(Br)ccc21 | 99 | 8 (≈ 3.44 µg/mL) | 10 (≈ 4.29 µg/mL)
19 | CCCCCCCCn1cc(CNC23CC4CC(CC(C4)C2)C3)c2c(F)cccc21 | 99 | 2 (≈ 0.821 µg/mL) | 3 (≈ 1.23 µg/mL)
20 | CCCCCCCCn1cc(CN2CCC(C)CC2)c2cccc(OC)c21 | 99 | 4 (≈ 1.48 µg/mL) | 8 (≈ 2.96 µg/mL)
21 | CC(C)=CCC/C(C)=C/Cn1cc(CNC2CCCC2)c2cc(F)ccc21 | 99 | 8 (≈ 2.95 µg/mL) | 14 (≈ 5.16 µg/mL)
22 | CCCCCCCCn1cc(CNC23CC4CC(CC(C4)C2)C3)c2ccc(OC)cc21 | 99 | 3 (≈ 1.27 µg/mL) | 6 (≈ 2.54 µg/mL)
23 | CCCCCCCCn1cc(CN2CCC3(CC2)OCCO3)c2c(OC)cccc21 | 99 | 6 (≈ 2.49 µg/mL) | 9 (≈ 3.73 µg/mL)

Row | Structure (SMILES) | inhibition of growth at 10 µM [1] [%] | MIC50 [2] [µM] | MIC90 [2] [µM]
24 | CC(C)=CCC/C(C)=C/Cn1cc(CN2CCN(C)CC2)c2cc(F)ccc21 | 99 | 15 (≈ 5.75 µg/mL) | 23 (≈ 8.82 µg/mL)
25 | CC(C)=CCC/C(C)=C/Cn1cc(CN2CCCCCC2)c2cc(F)ccc21 | 99 | 4 (≈ 1.53 µg/mL) | 7 (≈ 2.68 µg/mL)
26 | CCCCCCCCn1cc(CN2CCCCCC2)c2cccc(F)c21 | 99 | 5 (≈ 1.79 µg/mL) | 8 (≈ 2.87 µg/mL)
27 | CCCCNC(=O)Cn1cc(CN2CCCCC2)c2cc(F)ccc21 | 99 | > 50 | > 50
28 | CCN1CCN(Cc2cn(C/C=C(\C)CCC=C(C)C)c3ccc(F)cc23)CC1 | 99 | 13 (≈ 5.17 µg/mL) | 25 (≈ 9.94 µg/mL)
29 | CCCCCCCCn1cc(CN2CCC3(CC2)OCCO3)c2ccc(F)cc21 | 99 | 3 (≈ 1.21 µg/mL) | 5 (≈ 2.01 µg/mL)
30 | Fc1ccc2c(c1)c(CN1CCCCC1)cn2CCCc1ccccc1 | 99 | 10 (≈ 3.5 µg/mL) | 20 (≈ 7.01 µg/mL)
31 | CCCCCCCCn1ccc2cc(F)ccc21 | 99 | > 50 | > 50
32 | CCCCn1cc(CN2CCCCCC2)c2c(F)cccc21 | 99 | 10 (≈ 3.02 µg/mL) | 23 (≈ 6.96 µg/mL)
33 | CCCCCCCCn1cc(CN2CCCCCC2)c2ccc(F)cc21 | 99 | 4 (≈ 1.43 µg/mL) | 6 (≈ 2.15 µg/mL)
34 | CCCN(CCC)Cc1cn(C/C=C(\C)CCC=C(C)C)c2ccc(F)cc12 | 99 | 18 (≈ 6.92 µg/mL) | 39 (≈ 15 µg/mL)
35 | Fc1ccc2c(c1)c(CN1CCCCC1)cn2CCCOc1ccccc1 | 99 | 19 (≈ 6.96 µg/mL) | 50 (≈ 18.3 µg/mL)
36 | CCCCCCCCn1cc(CN2CCC(C)CC2)c2c(OC)cccc21 | 99 | 10 (≈ 3.71 µg/mL) | 18 (≈ 6.67 µg/mL)
37 | CCCCCCCCCCn1cc(CN2CCCCCC2)c2c(F)cccc21 | 99 | 10 (≈ 3.87 µg/mL) | 15 (≈ 5.8 µg/mL)
38 | CCCCCCCCn1cc(CNC23CC4CC(CC(C4)C2)C3)c2ccc(F)cc21 | 99 | 3 (≈ 1.23 µg/mL) | 5 (≈ 2.05 µg/mL)
39 | N#CCCCn1cc(CN2CCCCC2)c2cc(F)ccc21 | 99 | > 50 | > 50
40 | CCCCCCCCn1cc(CN2CCC3(CC2)OCCO3)c2cccc(OC)c21 | 99 | 28 (≈ 11.6 µg/mL) | 42 (≈ 17.4 µg/mL)
41 | CCCCCCCCn1cc(CN2CCSCC2)c2cc(F)ccc21 | 99 | 11 (≈ 3.99 µg/mL) | > 50
42 | CCCCCCCCn1cc(CN2CCCCCC2)c2ccc(OC)cc21 | 99 | 4 (≈ 1.48 µg/mL) | 6 (≈ 2.22 µg/mL)
43 | CCCCCCCCn1cc(CNC2CC2)c2cc(F)ccc21 | 99 | 11 (≈ 3.48 µg/mL) | 27 (≈ 8.54 µg/mL)
44 | CCCCCCCCn1cc(CN2CCOCC2)c2cc(F)ccc21 | 99 | 16 (≈ 5.54 µg/mL) | > 50
45 | CC(C)=CCC/C(C)=C/Cn1cc(CN2CCCCC2)c2ccccc21 | 99 | 3 (≈ 1.05 µg/mL) | 6 (≈ 2.1 µg/mL)
46 | CCCCCCCCn1cc(CNC2CCCCCC2)c2cc(F)ccc21 | 99 | 3 (≈ 1.12 µg/mL) | 16 (≈ 5.96 µg/mL)

Row | Structure (SMILES) | inhibition of growth at 10 µM [1] [%] | MIC50 [2] [µM] | MIC90 [2] [µM]
47 | CC(C)=CCC/C(C)=C/Cn1cc(CN(C)C)c2cc(F)ccc21 | 99 | 14.5 (≈ 4.76 µg/mL) | 25 (≈ 8.21 µg/mL)
48 | CCCCCCCCn1cc(CN2CCN(C)CC2)c2cc(F)ccc21 | 99 | 13 (≈ 4.67 µg/mL) | 36 (≈ 12.9 µg/mL)
49 | CCCCCCCCn1cc(CN2CCCCC2)c2cccc(OC)c21 | 99 | 8 (≈ 2.85 µg/mL) | 11 (≈ 3.92 µg/mL)
50 | CC(C)=CCC/C(C)=C/Cn1ccc2cc(F)ccc21 | 99 | > 50 | > 50
51 | CCCCCCCCn1cc(CN2CCCCC2)c2cccc(F)c21 | 99 | 8 (≈ 2.76 µg/mL) | 11 (≈ 3.79 µg/mL)
52 | CCCN(C)Cc1cn(C/C=C(\C)CCC=C(C)C)c2ccc(F)cc12 | 99 | 13 (≈ 4.63 µg/mL) | 28.5 (≈ 10.2 µg/mL)
53 | CC(C)=CCC/C(C)=C/Cn1cc(CNC23CC4CC(CC(C4)C2)C3)c2cc(F)ccc21 | 99 | 17.5 (≈ 7.61 µg/mL) | 25.5 (≈ 11.1 µg/mL)
54 | CCCCCCCCn1cc(CN2CCCCC2)c2cc(OC)ccc21 | 99 | 5 (≈ 1.78 µg/mL) | 7.5 to 8 (≈ 2.67 to 2.85 µg/mL)
55 | CCCCCCCCn1cc(CN2CCC(C)CC2)c2cc(OC)ccc21 | 99 | 4 (≈ 1.48 µg/mL) | 6 (≈ 2.22 µg/mL)
56 | Fc1ccc2[nH]cc(CN3CCCCC3)c2c1 | 99 | > 50 | > 50
57 | CCCCCCCCn1cc(CN2CCCCC2)c2cc(Br)ccc21 | 99 | 5 (≈ 2.03 µg/mL) | 9 (≈ 3.65 µg/mL)
58 | CCCCCCCCn1cc(CN2CCC(C)CC2)c2ccc(F)cc21 | 99 | 4 (≈ 1.43 µg/mL) | 5 (≈ 1.79 µg/mL)
59 | CCCCCCCCn1cc(CN2CCCCC2)c2c(OC)cccc21 | 99 | 16 (≈ 5.7 µg/mL) | 35 (≈ 12.5 µg/mL)
60 | CCCCCCCCn1cc(CNC23CC4CC(CC(C4)C2)C3)c2cc(F)ccc21 | 99 | 2.5 to 3 (≈ 1.03 to 1.23 µg/mL) | 5.5 to 6 (≈ 2.26 to 2.46 µg/mL)
61 | CCCCCCCCn1cc(CN2CCCCCC2)c2cccc(OC)c21 | 99 | 6 (≈ 2.22 µg/mL) | 10 (≈ 3.71 µg/mL)
62 | CC(C)=CCC/C(C)=C/Cn1cc(CN2CCCCC2)c2cc(Cl)ccc21 | 99 | 7 (≈ 2.69 µg/mL) | 10 (≈ 3.85 µg/mL)
63 | CCCCCCCCn1cc(CNC23CC4CC(CC(C4)C2)C3)c2cccc(F)c21 | 99 | 3 (≈ 1.23 µg/mL) | 5 (≈ 2.05 µg/mL)
64 | COc1ccc2c(c1)c(CN1CCCCC1)cn2C/C=C(\C)CCC=C(C)C | 99 | 9 (≈ 3.43 µg/mL) | 12 (≈ 4.57 µg/mL)
65 | CCCCCCCCn1cc(CNC23CC4CC(CC(C4)C2)C3)c2cc(OC)ccc21 | 99 | 3 (≈ 1.27 µg/mL) | 5 (≈ 2.11 µg/mL)
66 | CC(C)=CCC/C(C)=C/Cn1cc(CN2CCS(=O)(=O)CC2)c2cc(F)ccc21 | 99 | > 50 | > 50
67 | CC(C)=CCC/C(C)=C/Cn1cc(CN2CCC3(CC2)OCCO3)c2cc(F)ccc21 | 99 | 5 (≈ 2.13 µg/mL) | 9 (≈ 3.84 µg/mL)
68 | Fc1ccc2c(c1)c(CN1CCCCC1)cn2CCC1CCCCC1 | 99 | 17 (≈ 5.82 µg/mL) | 27 (≈ 9.25 µg/mL)
69 | CCCCCCCCn1cc(CN2CCC3(CC2)OCCO3)c2cccc(F)c21 | 99 | 3 (≈ 1.21 µg/mL) | 7 (≈ 2.82 µg/mL)
